Earlier results, collected in US20240091141A1, “METHODS AND COMPOSITIONS FOR THE ABLATION OF NERVES” (TULAVI THERAPEUTICS, INC., priority 2021, published 2024).

Assays:
a range of cell types = conditions: across a range of cell types
[1] = system: sympathetic, sensory and motor neurons
sympathetic ganglia cell = conditions: in vitro; 4 ug/ml (10 uM)
[2] = meta-analysis covering over 12,000 patients

C[C@H](CCCC(C)(C)O)[C@H]1CC[C@H]2[C@@H]3CC=C4C[C@@H](O)CC[C@]4(C)[C@H]3CC[C@]12C [25-OH-cholesterol]
neurotoxicity (a range of cell types): demonstrated neurotoxicity

CCO [ethanol]
concentrations that result in neurolysis [1]: above 50%
destruction of neurons ([1]; One-hundred percent ethanol): completely destroy the cell bodies and axons

Cholesterol oxides
time to sympathetic ganglia cell death (sympathetic ganglia cell): ≤ 36 h

hyaluronic acid
effect of intraarticular injections [2]: either no effect or a “clinically irrelevant effect”
